± gives the expanded uncertainty stated by the source.
Details: Crystal; DTA

NC(=O)N1c2ccccc2C=Cc2ccccc21 [carbamazepine]
Normal melting temperature: 193.00 ± 1 °C

Source: the NIST ThermoML archive (doi:10.1021/je8002157)
